Patent publication US11492341B2, “ACLY inhibitors and uses thereof” (Nimbus Artemis, Inc., priority 2018, dated 2022)

Key:
HepG2 cells [1] = assay: ACLY HepG2 14C-pyruvate incorporation assay with serum (IC50 Cholesterol); assay type: cell-based; settings: Homo sapiens, Table 7, with serum, IC50 Cholesterol per table title and b713 (column head prints Fatty Acid), read-out: ACLY HepG2 ^14C- Pyruvate Assay with serum IC50 Fatty Acid 96 well (IC50)
Experimental: (§1) Example 30. ACLY HepG2 ^14C-Pyruvate Incorporation Assay with Serum
(§2) Compounds of the invention were also assayed in an ACLY HepG2 ^14C-pyruvate incorporation assay with serum (IC50 Cholesterol) and (IC50 Fatty Acid). The protocol of the assay (below) was followed:
(§3) HepG2 cells were seed at 5 k cells/well in 96-well cell culture plate in DMEM with 10% FBS (heat inactivated and 25 mM glucose). After 48 hours, the medium was replaced with fresh medium containing 10% FBS (heat inactivated and 25 mM glucose).
(§4) After 18 hours, the medium was replaced with 200 uL of DMEM (5.5 mM glucose without pyruvate) with or without FBS containing compounds (30, 10, 3.33, 1.11, 0.370, 0.123, 0.041 uM). DMSO concentration was 0.5%. The cells were incubated with compounds at 37° C. for 1 hour.
(§5) 2 μci of [14C]-pyruvate was added per well and the cell samples were incubated at 37° C., 5% CO2 for 5 hours.
(§6) The medium was removed and placed into a 96-well polypropylene deep well plate. 200 uL of 0.1N NaOH was added to each well at room temperature to dissolve cell monolayer. The remaining cell suspension was pooled with medium in a 96-well polypropylene deep well plate. 68 uL of 50% KOH was added to the plate containing medium and cell suspensions and capped.
(§7) Cells were incubated at 70° C. for 1 hour, and then cooled to room temperature.
6. Cholesterol Extraction
1 mL petroleum ether was added per well to extract non-saponifyable lipids (primarily sterols such as cholesterol), shaken vigorously, and centrifuged at 1000 rpm for 5 minutes. 500 μL of the petroleum ether layer was then transferred to a 96 well plate and 200 ul of H2O was added, shaken vigorously, and centrifuged at 1000 rpm for 5 minutes. The petroleum ether layer 500 ul was transferred to a new 96-well plate and evaporated to dryness with SpeedVac overnight. 200 μL of scintillation cocktail was then added and shaken and transferred to a 96 well optiplate and counted using the Microbeta Liquid Scintillation Counter.

ACL = ACL (Homo sapiens (Human), UniProt P53396); assay: ADP-Glo Assay; assay type: biochemical; settings: 3 nM ACL, 15 μM ATP, 3 μM CoA, 300 μM Citrate
Summary of the method: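 Human ACL (3 nM) preincubated with compound 15 min at 25 °C, then reacted 60 min at 25 °C with 15 μM ATP, 3 μM CoA, 300 μM citrate, 0.01% Brij35, 4 mM DTT, 1% DMSO. ADP measured by ADP-Glo luminescence. Compounds tested from 30 or 100 μM top concentration, 3-fold dilutions, 11 points, duplicates.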

HepG2 cells [2] = assay: ACLY HepG2 14C-pyruvate incorporation assay with serum (IC50 Fatty Acid); assay type: cell-based; settings: Homo sapiens, Table 8, with serum, read-out: ACLY HepG2 ^14C- Pyruvate Assay with serum IC50 Fatty Acid 96 well (IC50)
Experimental: as §1, §2, §3, §4, §5, §6, §7
400 ul of the remaining 500 ul petroleum ether layer was removed and discard. 1 mL petroleum ether was added to the well, shaken vigorously, and centrifuged at 1000 rpm for 5 minutes. All 1100 ul of the petroleum ether layer removed and discarded. The aqueous phase was then acidified with 500 uL of concentrated HCl, checking pH of one or two extracts to make sure pH below 1 (critical, check by PH paper).
8. Fatty acids extraction
1 mL of petroleum ether was added per well to extract saponifyable lipids (extracted as fatty acids originating from saponified lipids such as triglycerides and phospholipids), shaken vigorously, centrifuged at 1000 rpm for 5 min, and 500 uL of the petroleum ether layer was then transferred to a new 96-well deep well plate. Repeat petroleum ether extraction step one more time and pool the petroleum ether extracts. Evaporate to dryness with SpeedVac overnight. 200 μL of scintillation cocktail was added and shaken and transferred to a 96 well optiplate and counted using the Microbeta Liquid Scintillation Counter.

ACC2 = ACC2 isolated from rat, mouse, monkey and human; cited from earlier work
ACC1 = ACC1 isolated from rat, mouse, monkey and human; cited from earlier work

Sequence of ACL (P53396 whole entry, species assumed): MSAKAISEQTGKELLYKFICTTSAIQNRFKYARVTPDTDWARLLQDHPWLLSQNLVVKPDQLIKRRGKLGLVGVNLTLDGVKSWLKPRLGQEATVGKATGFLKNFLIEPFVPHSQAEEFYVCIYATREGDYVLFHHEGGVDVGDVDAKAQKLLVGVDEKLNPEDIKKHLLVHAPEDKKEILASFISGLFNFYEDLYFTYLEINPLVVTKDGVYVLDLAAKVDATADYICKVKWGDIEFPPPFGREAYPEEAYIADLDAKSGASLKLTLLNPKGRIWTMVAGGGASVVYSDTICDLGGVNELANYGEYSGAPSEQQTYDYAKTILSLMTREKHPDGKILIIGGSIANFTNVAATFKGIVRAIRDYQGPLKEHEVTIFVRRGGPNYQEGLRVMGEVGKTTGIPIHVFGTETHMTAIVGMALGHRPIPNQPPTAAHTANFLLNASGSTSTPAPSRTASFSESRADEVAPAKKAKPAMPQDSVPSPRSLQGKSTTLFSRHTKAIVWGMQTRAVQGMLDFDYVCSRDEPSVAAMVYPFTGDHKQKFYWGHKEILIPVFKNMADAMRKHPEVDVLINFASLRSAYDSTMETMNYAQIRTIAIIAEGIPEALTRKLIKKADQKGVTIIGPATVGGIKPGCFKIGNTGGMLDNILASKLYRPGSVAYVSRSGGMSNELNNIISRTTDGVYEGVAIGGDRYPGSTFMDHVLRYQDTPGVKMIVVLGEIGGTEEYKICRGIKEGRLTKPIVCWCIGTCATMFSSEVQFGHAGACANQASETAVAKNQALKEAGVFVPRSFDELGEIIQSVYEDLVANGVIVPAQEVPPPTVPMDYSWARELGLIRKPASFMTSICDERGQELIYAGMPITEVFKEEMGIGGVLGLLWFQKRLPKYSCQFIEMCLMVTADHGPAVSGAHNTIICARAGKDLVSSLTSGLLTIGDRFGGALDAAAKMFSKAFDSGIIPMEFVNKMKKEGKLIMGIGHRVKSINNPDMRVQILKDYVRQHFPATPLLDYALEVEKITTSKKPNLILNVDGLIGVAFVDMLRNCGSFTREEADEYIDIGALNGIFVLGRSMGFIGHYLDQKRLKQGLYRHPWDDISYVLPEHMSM

IC50 (HepG2 cells [1])	IC50 (ACL)	IC50 (HepG2 cells [2])	Compound	IC50 (ACC2)	IC50 (ACC1)
≤ 10 µM	0.5 to 20 µM	≤ 10 µM	COc1ccc(-c2cc3cc(Cl)ccc3n2S(=O)(=O)c2cc(Br)cc(Cl)c2O)cn1 [I-28, 4-bromo-2-chloro-6-((5-chloro-2-(6-methoxypyridin-3-yl)-1H-indol-1-yl)sulfonyl)phenol]	–	–
≤ 10 µM	0.5 to 20 µM	≤ 10 µM	O=S(=O)(c1cc(Br)cc(Cl)c1O)n1c(-c2cccc(F)c2)cc2cc(Cl)ccc21 [I-40]	–	–
≤ 10 µM	0.5 to 20 µM	≤ 10 µM	O=S(=O)(c1cc(Br)cc(Cl)c1O)n1c(-c2ccccc2)cc2cc(Cl)ccc21 [I-1, 4-bromo-2-chloro-6-((5-chloro-2-phenyl-1H-indol-1-yl)sulfonyl)phenol]	–	–
≤ 10 µM	0.5 to 20 µM	≤ 10 µM	COc1ccc(-c2cc3cc(Cl)ccc3n2S(=O)(=O)c2cc(Br)cc(Cl)c2O)cc1 [I-26, 4-bromo-2-chloro-6-((5-chloro-2-(4-methoxyphenyl)-1H-indol-1-yl)sulfonyl)phenol]	–	–
≤ 10 µM	0.5 to 20 µM	≤ 10 µM	O=S(=O)(c1cc(Br)cc(Cl)c1O)n1c(-c2ccccc2)cc2cc(F)ccc21 [I-42]	–	–

The remaining lines, values behind:

Compound	IC50 (HepG2 cells [1])	IC50 (ACL)	IC50 (HepG2 cells [2])	IC50 (ACC2)	IC50 (ACC1)
Cc1cc2cc(Cl)ccc2n1S(=O)(=O)c1cc(Br)cc(Cl)c1O [I-30, 4-bromo-2-chloro-6-((5-chloro-2-methyl-1H-indol-1-yl)sulfonyl)phenol]	≤ 10 µM	0.5 to 20 µM	≤ 10 µM	–	–
Cc1c(-c2ccccc2)n(S(=O)(=O)c2cc(Br)cc(Cl)c2O)c2ccc(Cl)cc12 [I-47]	≤ 10 µM	0.5 to 20 µM	≤ 10 µM	–	–
N#Cc1ccc2c(c1)cc(-c1ccc(OC(F)(F)F)cc1)n2S(=O)(=O)c1cc(F)cc(F)c1O [I-81]	≤ 10 µM	0.5 to 20 µM	≤ 10 µM	–	–
O=S(=O)(c1cc(Br)cc(Cl)c1O)n1c(-c2cncs2)cc2cc(Cl)ccc21 [I-33, 4-bromo-2-chloro-6-((5-chloro-2-(thiazol-5-yl)-1H-indol-1-yl)sulfonyl)phenol]	≤ 10 µM	0.5 to 20 µM	≤ 10 µM	–	–
O=S(=O)(c1cc(F)cc(F)c1O)n1c(-c2ccccc2)cc2cc(Cl)ccc21 [I-61]	≤ 10 µM	0.5 to 20 µM	≤ 10 µM	–	–
O=S(=O)(c1cc(Br)cc(Cl)c1O)n1c(-c2ccc(OC(F)(F)F)cc2)cc2cc(Cl)ccc21 [I-25, 4-bromo-2-chloro-6-((5-chloro-2-(4-(trifluoromethoxy)phenyl)-1H-indol-1-yl)sulfonyl)phenol]	≤ 10 µM	0.5 to 20 µM	≤ 10 µM	–	–
N#Cc1ccc2c(c1)cc(-c1ccccc1)n2S(=O)(=O)c1cc(Br)cc(Cl)c1O [I-48]	≤ 10 µM	0.5 to 20 µM	≤ 10 µM	–	–
O=C(c1c2ccccc2cc2ccccc12)N1CCC(N2CCC[C@@H](C(=O)N3CCOCC3)C2)CC1 [CP-640186]	–	–	–	~0.06 µM	~0.06 µM
Cc1cc2cc(Cl)ccc2n1S(=O)(=O)c1cc(-c2cncs2)cc(Cl)c1O [I-156]	–	0.5 to 20 µM	–	–	–
O=S(=O)(c1cc(Cl)cc(Cl)c1O)n1c(-c2ccc(OC(F)(F)F)cc2)cc2cc(Cl)ccc21 [I-32, 2,4-dichloro-6-((5-chloro-2-(4-(trifluoromethoxy)phenyl)-1H-indol-1-yl)sulfonyl)phenol]	–	0.5 to 20 µM	–	–	–
